Experimental data: patent US20240317708A1, “INHIBITORS OF TRANSGLUTAMINASES” (ZEDIRA GMBH, priority 2021, published 2024)

Assays:
[1] = target: T1, recombinant human transglutaminase 2 (Homo sapiens, UniProt P21980); test: Transglutaminase assay (dansylcadaverine incorporation into dimethylcasein, DCC-assay); format: biochemical; conditions: recombinant human TG2 10 nM, dansylcadaverine/dimethylcasein, 37° C.
T1 construct: purchased Zedira T022
T1 sequence (P21980 1-687): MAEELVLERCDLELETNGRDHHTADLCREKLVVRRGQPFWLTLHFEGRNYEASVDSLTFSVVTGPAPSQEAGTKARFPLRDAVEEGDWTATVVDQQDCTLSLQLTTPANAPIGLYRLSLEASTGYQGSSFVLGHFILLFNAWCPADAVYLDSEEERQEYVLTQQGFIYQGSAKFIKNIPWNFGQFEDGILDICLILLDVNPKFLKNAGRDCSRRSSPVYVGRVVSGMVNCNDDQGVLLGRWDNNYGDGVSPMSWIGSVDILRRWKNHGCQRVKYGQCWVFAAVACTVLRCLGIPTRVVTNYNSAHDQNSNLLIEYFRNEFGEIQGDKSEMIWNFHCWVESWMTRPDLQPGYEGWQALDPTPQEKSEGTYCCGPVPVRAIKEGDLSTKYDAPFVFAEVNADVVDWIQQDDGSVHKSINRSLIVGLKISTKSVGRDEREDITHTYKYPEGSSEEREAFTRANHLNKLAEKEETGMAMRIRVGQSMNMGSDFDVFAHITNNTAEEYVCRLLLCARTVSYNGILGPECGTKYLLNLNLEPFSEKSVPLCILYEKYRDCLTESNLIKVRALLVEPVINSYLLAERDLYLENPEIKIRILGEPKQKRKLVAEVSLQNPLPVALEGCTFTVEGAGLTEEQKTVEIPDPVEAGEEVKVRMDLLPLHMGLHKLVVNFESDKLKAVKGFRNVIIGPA
How it was run: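 IC50 derived from fluorescence slope between 20 and 30 min (λex 330 nm, λem 500 nm, 37 °C), expressed relative to a 2% DMSO control. Reaction: 10 nM recombinant human TG2, 4 μM dimethylcasein, 16.7 μM dansylcadaverine, 10 mM CaCl2 and glutathione, pH 8.0.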

[2] = Log D shake flask method (octanol / PBS pH 7.4, HPLC); format: physicochemical; conditions: octanol/phosphate-buffered saline (PBS); octanol / PBS pH 7.4, shake flask
Procedure: In order to classify the inventive compounds according to their lipophilicity, Log D values (distribution coefficient) were determined by means of the well-established shake flask method, measuring the partition of a compound between an octanol and phosphate-buffered saline (PBS, pH 7.4) by HPLC.

[3] = Caco-2 permeability assay (CacoReady kit); format: in vitro ADME; conditions: human
How it was run: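 Papp values come from Caco-2 barrier studies intended to predict oral bioavailability; the manufacturer's procedure for the ready-made kit was followed.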

SMILES	IC50 [1]	logD [2]	Papp [3]
COC(=O)/C=C/CC[C@H](NC(=O)c1cc(Cl)sc1Cl)C(=O)Nc1cccn(CC(=O)NC23CC4CC(C)(CC(C)(C4)C2)C3)c1=O [III-124, (S,E)-methyl 6-(2,5-dichlorothiophene-3-carboxamido)-7-(1-(2-(3,5-dimethyladamantane-1-amino)-2-oxoethyl)-2-oxo-1,2-dihydropyridin-3-ylamino)-7-oxohept-2-enoate]	< 25 nM	3 to 5	1 to 10 ×10⁻⁶ cm/s
COC(=O)/C=C/CC[C@H](NC(=O)c1cc(Cl)sc1Cl)C(=O)Nc1cccn(CC(=O)N[C@@H]2C[C@@H]3CC[C@H]2C3)c1=O [III-126, (S,E)-methyl 7-(1-(2-((1S,2R,4R)-bicyclo[2.2.1]heptan-2-ylamino)-2-oxoethyl)-2-oxo-1,2-dihydropyridin-3-ylamino)-6-(2,5-dichlorothiophene-3-carboxamido)-7-oxohept-2-enoate]	< 25 nM	3 to 5	1 to 10 ×10⁻⁶ cm/s
COC(=O)/C=C/CC[C@H](NC(=O)c1ccn(C)n1)C(=O)Nc1cccn(CC(=O)NC2C3CC4CC(C3)CC2C4)c1=O (stereo partly drawn) [III-129, (S,E)-methyl 7-(1-(2-(2-adamantylamino)-2-oxoethyl)-2-oxo-1,2-dihydropyridin-3-ylamino)-6-(1-methyl-1H-pyrazole-3-carboxamido)-7-oxohept-2-enoate]	25 to 250 nM	1 to 3	< 1 ×10⁻⁶ cm/s
COC(=O)/C=C/CC[C@H](NC(=O)c1cnn(C)c1)C(=O)Nc1cccn(CC(=O)NC2C3CC4CC(C3)CC2C4)c1=O (stereo partly drawn) [III-130, (S,E)-methyl 7-(1-(2-(2-adamantylamino)-2-oxoethyl)-2-oxo-1,2-dihydropyridin-3-ylamino)-6-(1-methyl-1H-pyrazole-4-carboxamido)-7-oxohept-2-enoate]	25 to 250 nM	1 to 3	< 1 ×10⁻⁶ cm/s
COC(=O)/C=C/CC[C@H](NC(=O)c1ncc(OC)o1)C(=O)Nc1cccn(CCC(=O)NC2C3CC4CC(C3)CC2C4)c1=O (stereo partly drawn) [III-133, (S,E)-methyl 7-(1-(3-(2-adamantylamino)-3-oxopropyl)-2-oxo-1,2-dihydropyridin-3-ylamino)-6-(5-methoxyoxazole-2-carboxamido)-7-oxohept-2-enoate]	250 to 1500 nM	3 to 5	< 1 ×10⁻⁶ cm/s
COC(=O)/C=C/CC[C@H](NC(=O)c1cnc(C(C)C)o1)C(=O)Nc1cccn(CC(=O)NC23CCC(C2)C3)c1=O [III-134, (S,E)-methyl 7-(1-(2-(bicyclo[2.1.1]hexan-1-ylamino)-2-oxoethyl)-2-oxo-1,2-dihydropyridin-3-ylamino)-6-(2-isopropyloxazole-5-carboxamido)-7-oxohept-2-enoate]	25 to 250 nM	1 to 3	1 to 10 ×10⁻⁶ cm/s
COC(=O)/C=C/CC[C@H](NC(=O)c1cncnc1C)C(=O)Nc1cccn(CC(=O)NC2C3CC4CC2CC(C(=O)O)(C4)C3)c1=O (stereo partly drawn) [III-136, (S,E)-methyl 7-(1-(2-(5-carboxy-2-aminoadamantane)-2-oxoethyl)-2-oxo-1,2-dihydropyridin-3-ylamino)-6-(4-methylpyrimidine-5-carboxamido)-7-oxohept-2-enoate]	250 to 1500 nM	< 1	< 1 ×10⁻⁶ cm/s
COC(=O)/C=C/CC[C@H](NC(=O)C1CCc2ccccc2C1)C(=O)Nc1cccn(CC(=O)NC2C3CC4CC2CC(C(=O)N(C)C)(C4)C3)c1=O (stereo partly drawn) [III-137, (6S,E)-methyl 7-(1-(2-(4-aminoadamantane-N,N-dimethyl-1-carboxamide)-2-oxoethyl)-2-oxo-1,2-dihydropyridin-3-ylamino)-7-oxo-6-(1,2,3,4-tetrahydronaphthalene-2-carboxamido)hept-2-enoate]	250 to 1500 nM	1 to 3	< 1 ×10⁻⁶ cm/s
CCN(CC)C(=O)/C=C/CC[C@H](NC(=O)c1coc(C(C)=O)n1)C(=O)Nc1cccn(CC(=O)NC23CC(C2)C3)c1=O [III-138, (S,E)-6-(2-acetyloxazole-4-carboxamido)-N7-(1-(2-(bicyclo[1.1.1]pentan-1-ylamino)-2-oxoethyl)-2-oxo-1,2-dihydropyridin-3-yl)-N1,N1-diethylhept-2-enediamide]	250 to 1500 nM	< 1	< 1 ×10⁻⁶ cm/s
CCN(CC)C(=O)/C=C/CC[C@H](NC(=O)[C@@H]1CN2CCN1CC2)C(=O)Nc1cccn(CC(=O)NC23CC(C2)C3)c1=O [III-139, (S,E)-N7-(1-(2-(bicyclo[1.1.1]pentan-1-ylamino)-2-oxoethyl)-2-oxo-1,2-dihydropyridin-3-yl)-6-((S)-1,4-diazabicyclo[2.2.2]octane-2-carboxamido)-N1,N1-diethylhept-2-enediamide]	250 to 1500 nM	< 1	< 1 ×10⁻⁶ cm/s

Second part, the compound after the results:

IC50 [1]	logD [2]	Papp [3]	SMILES
< 25 nM	1 to 3	< 1 ×10⁻⁶ cm/s	COC(=O)/C=C/CC[C@H](NC(=O)c1cnnn1C)C(=O)Nc1cccn(CC(=O)N[C@H]2C[C@H]3CC[C@]2(C)C3(C)C)c1=O [III-121, (S,E)-methyl 6-(1-methyl-1H-1,2,3-triazole-5-carboxamido)-7-oxo-7-(2-oxo-1-(2-oxo-2-((1R,2S,4R)-1,7,7-trimethylbicyclo[2.2.1]heptan-2-ylamino)ethyl)-1,2-dihydropyridin-3-ylamino)hept-2-enoate]
25 to 250 nM	1 to 3	< 1 ×10⁻⁶ cm/s	COC(=O)/C=C/CC[C@H](NC(=O)c1ccnn1C)C(=O)Nc1cccn(CC(=O)N[C@H]2C[C@H]3CC[C@]2(C)C3(C)C)c1=O [III-122, (S,E)-methyl 6-(1-methyl-1H-pyrazole-5-carboxamido)-7-oxo-7-(2-oxo-1-(2-oxo-2-((1R,2S,4R)-1,7,7-trimethylbicyclo[2.2.1]heptan-2-ylamino)ethyl)-1,2-dihydropyridin-3-ylamino)hept-2-enoate]
< 25 nM	3 to 5	1 to 10 ×10⁻⁶ cm/s	COC(=O)/C=C/CC[C@H](NC(=O)c1sc(C(F)(F)F)nc1C)C(=O)Nc1cccn(CC(=O)NC23CC4CC(C)(CC(C)(C4)C2)C3)c1=O [III-123, (S,E)-methyl 7-(1-(2-(3,5-dimethyladamantane-1-amino)-2-oxoethyl)-2-oxo-1,2-dihydropyridin-3-ylamino)-6-(4-methyl-2-(trifluoromethyl)thiazole-5-carboxamido)-7-oxohept-2-enoate]
< 25 nM	1 to 3	1 to 10 ×10⁻⁶ cm/s	COC(=O)/C=C/CC[C@H](NC(=O)c1sc(C(F)(F)F)nc1C)C(=O)Nc1cccn(CC(=O)N[C@@H]2C[C@@H]3CC[C@H]2C3)c1=O [III-125, (S,E)-methyl 7-(1-(2-((1S,2R,4R)-bicyclo[2.2.1]heptan-2-ylamino)-2-oxoethyl)-2-oxo-1,2-dihydropyridin-3-ylamino)-6-(4-methyl-2-(trifluoromethyl)thiazole-5-carboxamido)-7-oxohept-2-enoate]
< 25 nM	3 to 5	1 to 10 ×10⁻⁶ cm/s	COC(=O)/C=C/CC[C@H](NC(=O)c1sc(C(F)(F)F)nc1C)C(=O)Nc1cccn(CC(=O)N[C@H]2C[C@H]3CC[C@]2(C)C3(C)C)c1=O [III-127, (S,E)-methyl 6-(4-methyl-2-(trifluoromethyl)thiazole-5-carboxamido)-7-oxo-7-(2-oxo-1-(2-oxo-2-((1R,2S,4R)-1,7,7-trimethylbicyclo[2.2.1]heptan-2-ylamino)ethyl)-1,2-dihydropyridin-3-ylamino)hept-2-enoate]
< 25 nM	3 to 5	1 to 10 ×10⁻⁶ cm/s	COC(=O)/C=C/CC[C@H](NC(=O)c1cc(Cl)sc1Cl)C(=O)Nc1cccn(CC(=O)N[C@H]2C[C@H]3CC[C@]2(C)C3(C)C)c1=O [III-128, (S,E)-methyl 6-(2,5-dichlorothiophene-3-carboxamido)-7-oxo-7-(2-oxo-1-(2-oxo-2-((1R,2S,4R)-1,7,7-trimethylbicyclo[2.2.1]heptan-2-ylamino)ethyl)-1,2-dihydropyridin-3-ylamino)hept-2-enoate]
25 to 250 nM	1 to 3	1 to 10 ×10⁻⁶ cm/s	COC(=O)/C=C/CC[C@H](NC(=O)c1c(C)noc1C)C(=O)Nc1cccn(CC(=O)NC2C3CCCC2CC3)c1=O (stereo partly drawn) [III-135, (6S,E)-methyl 7-(1-(2-(bicyclo[3.2.1]octan-8-ylamino)-2-oxoethyl)-2-oxo-1,2-dihydropyridin-3-ylamino)-6-(3,5-dimethylisoxazole-4-carboxamido)-7-oxohept-2-enoate]
